In US9895362B2, “Pharmaceutical composition combining an anticonvulsant and a derivate of nicotinic acid” (Farmacéuticos Rayere, S.A., priority 2014, dated 2018):

Assays:
[1] = test system: mechanical allodynia (diabetic neuropathy induced with streptozotocin); assay: Model of pain due to diabetic neuropathy induced with streptozotocin; mechanical allodynia by Von Frey filaments assay; isobolographic analysis; assay type: in vivo, male BALB/c mice; conditions: for DE30 (effective dose that provides an analgesic effect of 30%): drugs administered individually, antiallodynic effect from AUC at 4 hours post-treatment; for dose-antiallodynic effect curve: gabapentin 50, 100, 150 mg/kg, lysine clonixinate 75, 150, 300 mg/kg, individually
Description: In this example, a model of neuropathic pain induced by streptozotocin in male BALB/c mice 6-8 weeks of age is used. The procedure used was based on one described and widely validated (Ahlgren, S. C. and Levine, J. D., 1993), which consists in an intraperitoneal injection of streptozotocin (45 mg/kg) in 0.2 mL of saline solution. […] The blood glucose levels were evaluated in 4 groups of mice with the following characteristics: 1) without treatment (basal), 2) with treatment in fasting, 3) after 1 day of treatment and 4) after 4 days of treatment. As a diabetes parameter, a plasma glucose level≧200 mg/dL was taken.
Allodynia was determined by mechanical stimulation through progressively […] application of different forces with Von Frey filaments of different caliber. The mice were placed in plastic cylinders on a wire mesh table for 15 minutes, ensuring that they were calm, and subsequently the filaments were progressively applied to the side of the leg. The filament of 0.02 g of force was the first to be applied to the left leg, five times during a total period of 30 seconds (approximately 2 seconds per stimulus), the reaction of the mouse being determined after each application. The response observed is the withdrawal or licking of the leg. If three of the five stimuli are observed, the reaction is considered positive and the mechanical threshold of the response is established.
Different groups were used to characterize the dose-response curve of the analgesics, administering the drugs after inducing of diabetes. The doses for gabapentin were 50, 100 and 150 mg/kg, and for lysine clonixinate they were 75, 150 and 300 mg/kg. Groups of animals were used with n≧8. A 0.9% saline solution was administered by intraperitoneal route as a control of each experimental group.
For determination of antiallodynic efficacy, the mean threshold in each group was plotted as a function of time after the administration of the drugs individually or in combination, and the area below the curve (ABC) was obtained using the trapezoid rule. The percentage increase of the threshold was calculated using the following equation: […]
To evaluate the net antiallodynic effect, the area under the curve of the time courses evaluated at 4 hours post-treatment was obtained.
To evaluate the effect of the CLG combination in relation to the effect of each drug individually, isobolographic analysis was used. […] From the respective DE30 of the individual drugs, combinations of gabapentin and CL in fixed proportions were made and evaluated.
Subsequently, a dose-response curve was plotted after coadministration of the two drugs. […] The data represent the mean and the standard error of 8 mice.
Once the DE30 values, both the theoretical and experimental, were obtained, a statistical comparison of the additive theoretical point and the experimental DE30 value was done using a Student's t-test. The type of interaction between the two drugs was established by constructing an isobologram as follows. For each of the individual agents, the dose that produces 30% of antiallodynic effect (DE30) was plotted in rectangular coordinates (x, y). The line that connects these two points is termed “isobolic” or the “additivity line,” and on this line are all the possible combinations of the two drugs that produce only an additivity or summation effect.
To describe the magnitude of the interaction, the interaction index value (γ), which is a quantitative measure of the interaction between two drugs, was calculated: […]

[2] = patients treated with gabapentin; cited from earlier work
[3] = test system: neurological profile (behavior, reflexes, convulsions, motor coordination); assay: Neurological profile after subchronic administration (14 days); assay type: in vivo, mice; conditions: for value of all the parameters of the neurological profile: 14 days of treatment, at these doses; for Behavior: Exploratory Activity / Behavior: Flabbiness / Behavior: Irritability / Behavior: State of Alert / Behavior: Straightening of Tail / Behavior: Vocalization / Convulsions: Clonic / Convulsions: Gait Movements / Convulsions: Jumping Movement / Convulsions: Tonic / Motor Coordination: Abnormal Gait / Motor Coordination: Paralysis / Motor Coordination: Running in Circles / Motor Coordination: Staggering Gait / Reflexes: Corneal: i.p. daily 14 days, gabapentin 31 mg/kg, lysine clonixinate 150 mg/kg, or both
Description: The motor activity and biochemical profile evaluation data were evaluated by an analysis of variance (ANOVA), followed by a Dunnett test. The neurological profile data were evaluated by grading, with 0=null, […] and 3=significant. […] This administration was done consecutively every 24 hours. After 14 days of exposure, toxicological tests were done. A daily evaluation was simultaneously done of the neurological profile, since one critical aspect in all experimental models of nervous system pathologies is evaluation of the final neurological prognosis. In the case of subchronic administration of medication, evaluation of the final functional deficit is a valuable tool. Therefore, after receiving a daily dose for 14 days, the mice underwent an evaluation of the neurological profile of the experimental animals. This evaluation included parameters such as behavior, reflexes, convulsions and motor coordination. Each parameter was graded on a scale of 0=null, 1=slight, 2=moderate and 3=considerable.

[4] = test system: mechanical allodynia (injury of the sciatic nerve); assay: Experimental model of neuropathic pain due to injury (ligation and cutting) of the sciatic nerve; mechanical allodynia by Von Frey filaments assay; isobolographic analysis; assay type: in vivo, mice; conditions: for DE30: drugs administered individually, intraperitoneal, linear regression, AUC at 4 hours; for dose dependence of antiallodynic effect: intraperitoneal administration
From the text: To evaluate the analgesic efficacy of the CLG combination in neuropathic pain due to injury to the nerve, an experimental model of neuropathic pain due to ligation and cutting of sciatic nerve in mice was used. The procedure used was based on that described by I. Decosterd and C. J. Woolf (2000), which consists of isolating, tying and injuring the sciatic nerve of the mouse, followed by evaluation of the mechanical allodynia resulting from damage to the nerve.
The surgery consisted of making an incision of approximately 1 cm in the direction proximal longitudinal to the knee and afterwards opening the skin by blunt dissection and separating the muscular layer by dissection lateral to the blood vessel near the femur. Then the right sciatic nerve was exposed under the muscles, separating them with care to display the sciatic nerve in the region where it branches from the sural nerve. Only the sciatic nerve was sutured with No. 6 thread, trying not to damage the sural nerve in any way. A tight surgical knot was made on the sciatic nerve by cutting below the suture with a pair of tweezers, then stitching the muscle layer and the skin by surgical knots. […] Consequently, the antiallodynic effect of the drugs is evaluated from the second or third day after the surgery. For validation of the model, as a surgery control group, a sham surgery was used, in which the sciatic nerve is only exposed surgically, without ligation or cutting, and then the muscle tissue and skin is stitched.
In all groups, the evaluation of mechanical allodynia with the application of Von Frey filaments was done in the same manner as described above for the model of pain due to diabetic neuropathy. The response thresholds in both legs, ipsilateral (right) and contralateral (left), were evaluated.
For systemic administration of the drugs individually and in combinations in the mechanical allodynia model, different groups were used to characterize the dose-response curve by administering the drugs on the third day after the surgery. The doses for gabapentin were 50, 100 and 150 mg/kg, and for lysine clonixinate they were 75, 150 and 300 mg/kg. Afterwards, as described below, other groups were administered different doses of the CLG combination. Both gabapentin and lysine clonixinate and their combinations were dissolved in a 0.9% saline solution. Groups of animals were used with an experimental n of 6 to 8. A 0.9% saline solution was administered by intraperitoneal route to an experimental control group.
To evaluate the net antiallodynic effect, the area under the curve of the time courses evaluated at 4 hours post treatment, both of the ipsilateral and the contralateral leg, was obtained using the trapezoid rule. […] FIG. 10 represents the dose-antiallodynic effect curves, corresponding to gabapentin and lysine clonixinate administered individually. By means of linear regression, the DE30 values of the drugs administered individually were obtained.
In the same way as was done in the previous model, isobolographic analysis was used to evaluate the effect of the CLG combination in relation to the effect of each drug individually. From the respective DE30 of the individual drugs, combinations of gabapentin and CL in fixed proportions were evaluated.

[5] = test system: neuropathic pain; assay: Overall conclusions from both mouse models of neuropathic pain; assay type: in vivo, mice; conditions: lysine clonixinate alone, in the studies performed
From the text: In the present study, we used two mouse models to study neuropathic pain: the model of diabetic neuropathy induced by streptozotocin and the model of neuropathic pain induced by a physical injury to the sciatic nerve.

| SMILES | DE30 (effective dose that provides an analgesic effect of 30%) ([1]; diabetic neuropathy model) [mg/kg] | dose-antiallodynic effect curve [1] | value of all the parameters of the neurological profile [3] | Behavior: Exploratory Activity [3] | Behavior: Flabbiness [3] | Behavior: Irritability [3] | Behavior: State of Alert [3] | Behavior: Straightening of Tail [3] | Behavior: Vocalization [3] | Convulsions: Clonic [3] | Convulsions: Gait Movements [3] | Convulsions: Jumping Movement [3] | Convulsions: Tonic [3] | Motor Coordination: Abnormal Gait [3] | Motor Coordination: Paralysis [3] | Motor Coordination: Running in Circles [3] | Motor Coordination: Staggering Gait [3] | Reflexes: Corneal [3] | DE30 [4] [mg/kg] | dose dependence of antiallodynic effect [4] | further results |
| --- | --- | --- | --- | --- | --- | --- | --- | --- | --- | --- | --- | --- | --- | --- | --- | --- | --- | --- | --- | --- | --- |
| NCC1(CC(=O)O)CCCCC1 [gabapentin, 2-[1-(aminomethyl)cyclohexyl] acetic acid] | 39.62 ± 1.35 | dose-dependent increase | 0 | 0 | 0 | 0 | 0 | 0 | 0 | 0 | 0 | 0 | 0 | 0 | 0 | 0 | 0 | 0 | 83.82 | dose dependent increase | DE30 (effective dose that provides an analgesic effect of 30%) ([1]; diabetic neuropathy model, listed as Gabapentin): 39.62 mg/kg; patients showing drowsiness, dizziness, ataxia, headache and fatigue [2]: more than 10% |
| Cc1c(Cl)cccc1Nc1ncccc1C(=O)O.NCCCC[C@H](N)C(=O)O [lysine clonixinate, lysine salt of 2-[(3-chloro-2-methylphenyl)amino]-3-pryridinecarboxylic acid] | 150.41 ± 25.49 | dose-dependent increase | 0 | 0 | 0 | 0 | 0 | 0 | 0 | 0 | 0 | 0 | 0 | 0 | 0 | 0 | 0 | 0 | 579.67 | dose dependent increase | antiallodynic effect (in words) ([1]; administered individually, diabetic neuropathy model): moderate antiallodynic effect; DE30 (effective dose that provides an analgesic effect of 30%) ([1]; diabetic neuropathy model, listed as Lysine Clonixinate): 150.41 mg/kg; effect on neuropathic pain (maximum found) [5]: up to 30%; antiallodynic effect (in words) ([4]; administered individually): moderate antiallodynic effect |
